# Results reported in patent US8044035B2, “Pharmaceutical compositions of pyrimidine-2,4,6-triones” (priority 2004, dated 2011).
# Assay: Pharmacokinetics after intravenous administration to sheep
# Format: in vivo
# Settings: intravenous 5 mg/kg
# Method: The Compound I/HP-β-CD intravenous solution was obtained by dissolving Compound I (10 mg/ml) in a solution containing HP-β-CD (200 mM), L-lysine (20 mM) and water for injection. The osmolality (about 325 mOsmol/kg) and the pH (about 8.2) values of this solution are compatible with an intravenous injection. The solution was sterilized by passing through a sterile 0.20 μm cellulose acetate filter under aseptic conditions.
# Six healthy sheep (2 males and 4 females) ranging from 45 to 82 kg of body weight were used as experimental animals. During the test, the animals were fed and watered ad libitum. […]
# For the intravenous administration study, the pharmacokinetic parameters were determined for each animal using a linear two-compartment model with first-order distribution and elimination (Boroujerdi, M., Pharmacokinetics, Principles and Applications. McGrow-Hill Companies, USA, 2002). The areas under the curve values (AUCs0-168) were calculated by linear trapezoidal rule during the sampling period. The AUC extrapolated until infinite values (AUCs0-∞) the total body clearance values (Clt), the biologic half-life (T1/2β) and the overall volume of distribution (Vdt) were calculated using conventional equations associated with compartmental analysis (Boroujerdi, M., Pharmacokinetics, Principles and Applications. McGrow-Hill Companies, USA, 2002).
structure (smiles),measurement,value
"O=C1NC(=O)C(c2ccc(-c3ccccc3)cc2)(N2CCN(c3ccc([N+](=O)[O-])cc3)CC2)C(=O)N1 [Compound I, 5-Biphenyl-4-yl-5-[4-(4-nitro-phenyl)-piperazin-1-yl]pyrimidine-2,4,6-trione]",Distribution phase,about 30 minutes
